Test results as given in ChEMBL document CHEMBL1201862, “PubChem BioAssay data set” (2004).
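1) Cells in 96-well plates. 2) Compound, 48 h, 5 concentrations. 3) Linear interpolation between surrounding doses. 4) Unreached endpoint = highest concentration. Abbreviation: GI50, concentration required for 50% inhibition of growth.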 Activity calls are given as the source filed them. No stated cut-off is given here; in the data, active = GI50 up to about 1.1 µM and inactive = higher.

Legend:
Test in all cases: NCI-60 cell line screen, 48 h
K562 = system: K562
TK-10 = system: TK-10
LOX IMVI = system: LOX IMVI
SK-MEL-5 = system: SK-MEL-5
SR = system: SR
Malme-3M = system: Malme-3M
A549 = system: A549
UACC-257 = system: UACC-257
SF-268 = system: SF-268
MCF7 = system: MCF7
HL-60 = system: HL-60
CCRF-CEM = system: CCRF-CEM
OVCAR-8 = system: OVCAR-8
SK-MEL-28 = system: SK-MEL-28
786-0 = system: 786-0
SF-295 = system: SF-295
SW-620 = system: SW-620
MOLT-4 = system: MOLT-4
OVCAR-4 = system: OVCAR-4
NCI-H460 = system: NCI-H460

Structure (SMILES) | GI50 (K562) | GI50 (TK-10) | GI50 (LOX IMVI) | GI50 (SK-MEL-5) | GI50 (SR) | GI50 (Malme-3M) | GI50 (A549) | GI50 (UACC-257) | GI50 (SF-268) | GI50 (MCF7) | GI50 (HL-60) | GI50 (CCRF-CEM) | GI50 (OVCAR-8) | GI50 (SK-MEL-28) | GI50 (786-0) | GI50 (SF-295) | GI50 (SW-620) | GI50 (MOLT-4) | GI50 (OVCAR-4) | GI50 (NCI-H460)
O=C1Nc2ccccc2/C1=N/NC(=S)N1CCCC1 | 0.586 µM (active) | 8.26 µM (inactive) | 0.673 µM (active) | 0.585 µM (active) | 0.291 µM (active) | 0.889 µM (active) | 0.736 µM (active) | 6.97 µM (inactive) | 9.93 µM (inactive) | 2.07 µM (inactive) | 0.583 µM (active) | 0.369 µM (active) | 1.02 µM (active) | > 100 µM (inactive) | 0.647 µM (active) | 0.662 µM (active) | 0.766 µM (active) | 0.193 µM (active) | 1.01 µM (active) | 0.499 µM (active)
C=C1C(=O)OC2/C=C(/C)C3(O)OC(C)(CC(OC(=O)C(C)C)C12)CC3OC(C)=O (stereo not drawn) | 2.96 µM (inactive) | 5.82 µM (inactive) | 8.87 µM (inactive) | 6.31 µM (inactive) | 2.52 µM (inactive) | 9.91 µM (inactive) | 10.8 µM (inactive) | 16.4 µM (inactive) | 22.6 µM (inactive) | 3.7 µM (inactive) | 2.64 µM (inactive) | 2.79 µM (inactive) | 3.27 µM (inactive) | 7.48 µM (inactive) | 5.27 µM (inactive) | 9.75 µM (inactive) | 4.19 µM (inactive) | 4.36 µM (inactive) | 13.2 µM (inactive) | 3.9 µM (inactive)
CCCCCCCCCCCCCCCC(=O)OCC1OC(OC)C2NP(=O)(N(CCCl)CCCl)OC1C2O (stereo not drawn) | 2.36 µM (inactive) | 10.9 µM (inactive) | 1.28 µM (inactive) | 7.53 µM (inactive) | 0.0177 µM (active) | 14.1 µM (inactive) | 6.11 µM (inactive) | 12.1 µM (inactive) | 1.67 µM (inactive) | 0.366 µM (active) | 0.117 µM (active) | 0.142 µM (active) | 2.51 µM (inactive) | 22.2 µM (inactive) | 0.44 µM (active) | 4.48 µM (inactive) | 2.22 µM (inactive) | 0.0288 µM (active) | 8.51 µM (inactive) | 0.54 µM (active)
Cc1ccc(-c2cc(-c3cc(-c4ccc(C)cc4C)[nH]n3)[nH]n2)c(C)c1 | 15.5 µM (inactive) | 15.6 µM (inactive) | 19.9 µM (inactive) | 16.4 µM (inactive) | 10.2 µM (inactive) | 11.1 µM (inactive) | 13.9 µM (inactive) | 12.4 µM (inactive) | 12.5 µM (inactive) | 15 µM (inactive) | 0.027 µM (active) | 0.71 µM (active) | 15 µM (inactive) | 13.7 µM (inactive) | 13 µM (inactive) | 13.1 µM (inactive) | 11.8 µM (inactive) | 10.1 µM (inactive) | 8.71 µM (inactive) | 7.93 µM (inactive)
O=C1NN=C2C=C(c3ccc(Cl)cc3)CC(c3cccc(Cl)c3)C12 (stereo not drawn) | 17.1 µM (inactive) | 20.1 µM (inactive) | 18.5 µM (inactive) | 18.5 µM (inactive) | 18.2 µM (inactive) | 37.2 µM (inactive) | 16.4 µM (inactive) | 17.9 µM (inactive) | 23.1 µM (inactive) | 17.3 µM (inactive) | 21.2 µM (inactive) | 23.6 µM (inactive) | 45.4 µM (inactive) | – | 21.4 µM (inactive) | 18.7 µM (inactive) | 27.9 µM (inactive) | 17.9 µM (inactive) | 17.2 µM (inactive) | 19 µM (inactive)
O=C1c2ccccc2C(=O)c2c(NCCCN3CCOCC3)ccc(NCCCN3CCOCC3)c21 | 2.16 µM (inactive) | 12.9 µM (inactive) | 1.54 µM (inactive) | 2.51 µM (inactive) | 5.57 µM (inactive) | 8.89 µM (inactive) | 4.18 µM (inactive) | 2.96 µM (inactive) | 2.75 µM (inactive) | 5.9 µM (inactive) | 2.45 µM (inactive) | 2.59 µM (inactive) | 1.9 µM (inactive) | 5.79 µM (inactive) | 2.29 µM (inactive) | 1.94 µM (inactive) | 3.97 µM (inactive) | 1.09 µM (active) | 2.67 µM (inactive) | 1.54 µM (inactive)
CC1(COS(=O)(=O)OCC2(C)COS(=O)(=O)OC2)COS(=O)(=O)OC1 | > 26.2 µM (inactive) | > 74.8 µM (inactive) | > 40.5 µM (inactive) | > 69.2 µM (inactive) | > 24.9 µM (inactive) | > 83 µM (inactive) | > 28.8 µM (inactive) | > 75 µM (inactive) | > 100 µM (inactive) | > 22.3 µM (inactive) | > 35.1 µM (inactive) | > 28.2 µM (inactive) | > 48.3 µM (inactive) | > 100 µM (inactive) | > 50.8 µM (inactive) | > 100 µM (inactive) | > 55.2 µM (inactive) | – | > 60.8 µM (inactive) | > 42.3 µM (inactive)
